Structures can show the parent of a compound that is named as a salt.
How the values were obtained:
Type in all cases: physicochemical
[1] = Photostability of TBR-760 salt forms (ICH Q1B, visible and UV light), appearance and UPLC purity; settings: for Purity, UV-exposed / Appearance, UV-exposed: UV 200 watt hours/square meter; for Purity, UV-exposed / Purity, Light-exposed / Appearance, UV-exposed / Appearance, Light-exposed: clear sealed vial; for Purity, Control / Appearance, Control: control in sealed amber vial at -20° C.; for Purity, Dark Ctrl-UV / Appearance, Dark Ctrl-UV: dark control in UV chamber; for Purity, Dark Crtl-Light / Appearance, Dark Crtl-Light: dark control in visible light chamber; for Appearance, Dark Ctrl-UV / Appearance, Dark Crtl-Light: amber vial wrapped in aluminum foil; for degradation upon exposure to visible or UV light, in words: visible and UV light
Text: (§1) In order to evaluate the light sensitivity and stability of TBR-760 chimeric peptide salts, all five salt forms were exposed to ultraviolet (UV) and visible light according to International Council for Harmonisation of Technical Requirements for Pharmaceuticals for Human Use (ICH) guideline Q1B for photostability testing. In brief, a Caron 6540-1 photostability chamber unit with separate UV and light chambers was used for the studies. Visible light exposure was 1.2 million lux hours and UV exposure was 200 watt hours/square meter.
Samples were placed in clear, sealed vials and stored in the appropriate chamber alongside dark controls in amber colored vials wrapped in aluminum foil. Control samples were stored in sealed amber vials at −20° C. The appearance of exposed samples was examined visually before being analyzed via UPLC.

[2] = Thermogravimetric analysis (TGA) of TBR-760 salt forms
Method: Thermogravimetric analyses (TGA) were performed on all TBR-760 salt forms to evaluate thermal stability of each salt form. Studies were performed using a TGA-Q500 thermogravimetric analyzer (TA Instruments). The weight of each compound was measured while the temperature was increased at a ramp rate of 5.0° C. per minute from 25 to 400° C. […] The weight loss may be indicative of loss of adsorbed moisture, entrained solvent or volatile impurities. Decomposition of the compound appears to start at about 234° C. (sulfate salt), 245° C. (chloride salt), 252° C. (tosylate salt), and 255° C. (mesylate salt). For the acetate salt, a further ˜5% loss of weight between 110° C. and 200° C. was observed, indicating loss of volatile acetate ions over that temperature range (FIG. 8).

[3] = Solid state (thermolytic) stability of TBR-760 salt forms, open container, UPLC peak purity and appearance; settings: for Purity, T = 2 wk / Purity, T = 4 wk / Purity, Control / Purity, T = 3 d: UPLC peak purity; for Purity, Control / Appearance, Control: stored at -20° C.
Method: (§2) Each TBR-760 salt was further evaluated for thermolytic stability over time by setting up three different exposure conditions (25° C. at 60% relative humidity (RH); 40° C. at 75% RH; or 60° C. with open and closed container systems (open dish/closed dish). Approximately 50 mg of each salt form was weighed in a nitrogen-flushed glove box for use in the studies. All samples were stored at −20° C. in a good laboratory practice (GLP) freezer both before and after exposure to the indicated conditions.
(§3) The stability of each salt form was assessed by monitoring the post-exposure drug peak purity and by evaluating the post-exposure visual appearance of the salt. The samples were removed from the exposure conditions and allowed to equilibrate to ambient conditions for 15-20 mins. An appropriate amount of each sample was weighed for analysis and dissolved in diluent (deionized water containing 0.1% TFA) to obtain a stock concentration of 1 mg/mL. The stock solution was then diluted to 0.125 mg/mL in an HPLC vial using diluent and the samples were run on a Waters Acquity UPLC system using the parameters shown in Table 4.

[4] = Thermostability of alternative salt forms of lanreotide and TBR-760 (UPLC)
Method: as §2, §3
We conducted thermostability studies of lanreotide acetate substantially as described in Example 6. These experiments confirmed that lanreotide acetate is […] when exposed to increasing temperature and humidity conditions over time (FIG. 45). […] (FIG. 45). This degree of thermal and humidity instability is disfavored for a pharmaceutical agent, particularly one intended for patient self-administration at home.
To determine whether a thermostable salt form of TBR-760 could be manufactured, a salt exchange was performed as described in Example 1 to generate bromide and chloride salts of TBR-760. Lanreotide bromide and lanreotide chloride salts were also generated and assessed for thermostability to evaluate the effect of the salt form on compound stability and to compare stability of lanreotide and TBR-760 of each salt.
UPLC assays performed as described in Example 6 were further used to determine the number of degradants—and thus the number of impurities—in each sample. Results showing the purity assessment of each sample following thermostability studies are shown in FIGS. 48A-48B (lanreotide and TBR-760 acetate salts), 49A-49B (lanreotide and TBR-760 bromide salts), and 50A-50B (lanreotide and TBR-760 chloride salts).

[5] = Photostability of alternative salt forms of lanreotide and TBR-760; settings: 1.2 million lux hours visible light or 200 watt hours/square meter UV light, versus control
Text: as §1
Photostability of lanreotide acetate, lanreotide bromide, lanreotide chloride, TBR-760 acetate, TBR-760 bromide and TBR760 chloride was tested according to the methods of Example 7. Four samples were prepared for each salt form: one control for each of the UV and visible light exposure conditions (controls isolated from light) and one sample for exposure to each of the UV and visible light conditions. For each sample, 2-5 mg of the salt was weighed into 3 mL clear serum vials and stoppered. Vials containing control samples were wrapped in aluminum foil.
Following exposure to visible and UV light, all lanreotide and TBR-760 salts were analyzed by UPLC as described in Example 7.

[6] = Time and temperature stability of lyophilized TBR-760 salts in sealed glass vials (visual appearance, HPLC); settings: for salt form degraded: sealed glass vials, HPLC
Method: Lyophilized TBR-760 salts prepared as described above were assessed for stability by visual appearance and HPLC following initial production of the salt and following incubation of the salt at 20° C., 40° C., and 60° C. for 2, 4, and 8 weeks in sealed, glass vials. Changes in visual appearance of the salt were noted by evaluating the color of the substance following each incubation condition. Purity of the salt following each incubation condition was evaluated by HPLC. The number and quantity of degradation products were determined according to the number of absorbance peaks that resulted at different retention times and the size of the peaks.

[7] = UPLC, visible light 1.2 million lux hours
[8] = 25° C. at 60% RH, open container
[9] = 40° C. at 75% RH, open container

Compound: CCCN1C[C@H](CSCC(=O)NCCCC[C@@H](NC(=O)CSC[C@@H]2C[C@@H]3c4cccc5[nH]cc(c45)C[C@H]3N(CCC)C2)C(=O)N[C@H]2CSSC[C@@H](C(=O)N[C@H](C(N)=O)[C@@H](C)O)NC(=O)[C@H](CC)NC(=O)[C@H](CCCCN)NC(=O)[C@@H](Cc3c[nH]c4ccccc34)NC(=O)[C@H](Cc3ccc(O)cc3)NC2=O)C[C@@H]2c3cccc4[nH]cc(c34)C[C@H]21 [TBR-760 tosylate, Dop2-D-Lys(Dop2)-cyclo[Cys-Tyr-D-Trp-Lys-Abu-Cys]-Thr-NH2]
- Purity, UV-exposed ([1]; UPLC): 95.67
- Purity, Control ([1]; UPLC): 98.39
- Purity, Dark Ctrl-UV ([1]; UPLC): 98.27
- Purity, Dark Crtl-Light ([1]; UPLC): 98.27
- Purity, Light-exposed [1, 7]: 96.3
- Appearance, UV-exposed ([1]; listed as Tosylate): off-white
- Appearance, UV-exposed ([1]; listed as tosylate): white to off-white
- Appearance, Control [1]: white
- Appearance, Dark Ctrl-UV [1]: white
- Appearance, Dark Crtl-Light [1]: white
- degradation upon exposure to visible or UV light, in words ([1]; UPLC): more resistant to degradation than TBR-760 acetate
- stability following light exposure, in words ([1]; visible light 1.2 million lux hours): significantly more stable than the TBR-760 acetate salt
- Appearance, Light-exposed ([1]; visible light 1.2 million lux hours, listed as Tosylate): off-white
- Appearance, Light-exposed ([1]; visible light 1.2 million lux hours, listed as tosylate): white to off-white
- TGA start of decomposition ([2]; ramp 5.0° C. per minute from 25 to 400° C., listed as tosylate salt): ~252 °C
- Appearance, T = 2 wk [3, 8]: White
- Appearance, T = 4 wk [3, 8]: White
- Appearance, T = 3 d [3, 8]: White
- Appearance, T = 2 wk [3, 9]: White
- Appearance, T = 4 wk [3, 9]: White
- Appearance, T = 3 d [3, 9]: White
- Appearance, T = 2 wk ([3]; 60° C., open dish): White
- Appearance, T = 4 wk ([3]; 60° C., open dish): White
- Appearance, T = 3 d ([3]; 60° C., open dish): White
- Purity, T = 2 wk [3, 8]: 98.01
- Purity, T = 4 wk [3, 8]: 97.39
- Purity, T = 2 wk [3, 9]: 97.57
- Purity, T = 4 wk [3, 9]: 96.93
- Purity, T = 2 wk ([3]; 60° C., open dish): 96.86
- Purity, T = 4 wk ([3]; 60° C., open dish): 96.52
- Purity, Control [3]: 98.39
- Appearance, Control [3]: White

Compound: CCCN1C[C@H](CSCC(=O)NCCCC[C@@H](NC(=O)CSC[C@@H]2C[C@@H]3c4cccc5[nH]cc(c45)C[C@H]3N(CCC)C2)C(=O)N[C@H]2CSSC[C@@H](C(=O)N[C@H](C(N)=O)[C@@H](C)O)NC(=O)[C@H](CC)NC(=O)[C@H](CCCCN)NC(=O)[C@@H](Cc3c[nH]c4ccccc34)NC(=O)[C@H](Cc3ccc(O)cc3)NC2=O)C[C@@H]2c3cccc4[nH]cc(c34)C[C@H]21 [TBR-760 acetate, Dop2-D-Lys(Dop2)-cyclo[Cys-Tyr-D-Trp-Lys-Abu-Cys]-Thr-NH2]
- Purity, UV-exposed ([1]; UPLC): 96.16
- Purity, Control ([1]; UPLC): 98.35
- Purity, Dark Ctrl-UV ([1]; UPLC): 98.42
- Purity, Dark Crtl-Light ([1]; UPLC): 98.34
- Purity, Light-exposed [1, 7]: 92.14
- Appearance, UV-exposed ([1]; listed as TBR-760 acetate salt): white to a pale yellow-brown color
- Appearance, Control [1]: white
- Appearance, Dark Ctrl-UV [1]: white
- Appearance, Dark Crtl-Light [1]: white
- degradation under dark conditions ([1]; dark controls, UPLC): does not degrade
- degradation upon exposure to visible or UV light, in words ([1]; UPLC): degraded
- Appearance, Light-exposed ([1]; visible light 1.2 million lux hours, listed as TBR-760 acetate salt): white to yellow-brown
- TGA further loss of weight ([2]; between 110° C. and 200° C.): approximately 5%
- Appearance, T = 2 wk [3, 8]: White
- Appearance, T = 4 wk [3, 8]: White
- Appearance, T = 3 d [3, 8]: White
- stability compared with the other salt forms ([3]; 40° C. at 75% RH and 60° C., 2 and 4 weeks, listed as acetate salt): least stable of the salts tested
- Appearance, T = 2 wk [3, 9]: White
- Appearance, T = 3 d [3, 9]: White
- Appearance, T = 4 wk ([3]; 60° C., open dish): Pale Orange
- Appearance, T = 3 d ([3]; 60° C., open dish): White
- Purity, T = 2 wk [3, 8]: 98.16
- Purity, T = 4 wk [3, 8]: 98.09
- Purity, T = 3 d [3, 8]: 98.52
- Purity, T = 2 wk [3, 9]: 94.52
- Purity, T = 4 wk [3, 9]: 92.37
- Purity, T = 3 d [3, 9]: 98.4
- Purity, T = 2 wk ([3]; 60° C., open dish): 89.7
- Purity, T = 4 wk ([3]; 60° C., open dish): 82.32
- Purity, T = 3 d ([3]; 60° C., open dish): 96.66
- Purity, Control [3]: 98.35
- Appearance, Control [3]: White
- additional degradants in chromatogram versus control ([3]; two weeks at 60° C., open dish, UPLC, listed as acetate salt): 17
- compound degraded ([4]; 4 weeks at 60° C. and ambient humidity): greater than 5%
- thermostability in words ([4]; increasing temperature and humidity (25° C./60% RH, 40° C./75% RH, 60° C.) up to 4 weeks): does not maintain stability
- visible appearance after exposure to visible and UV light [5]: from a white salt (control) to a yellow/brown salt
- change in visual appearance ([6]; 4 weeks at 60° C.): from a white powder to a yellow powder
- salt form degraded ([6]; 60° C. for 4 weeks): 9.9%
- salt form degraded ([6]; 60° C. for 8 weeks): more than 16%

— US20210338782A1, “STORAGE STABLE SOMATOSTATIN-DOPAMINE CHIMERIC COMPOUNDS AND SALT FORMS THEREOF” (Cydan II, Inc., priority 2019, published 2021)
